Experiment [1] has as its target soluble human BACE1 catalytic domain (Homo sapiens (Human), UniProt P56817). Put plainly: BACE1 HTRF FRET Assay. Type of experiment: biochemical. The settings on record: Ki calculated from IC50 using the Cheng-Prusoff equation; QSY7-APPswe-Eu substrate, pH 5.0; read-out: BACE-1 Ki. From the text:
Na^+-Acetate pH 5.0; 1% Brij-35; Glycerol; Dimethyl Sulfoxide (DMSO); Recombinant human soluble BACE1 catalytic domain (>95% pure); APP Swedish mutant peptide substrate (QSY7-APP^swe-Eu): QSY7-EISEVNLDAEFC-Europium-amide.
A homogeneous time-resolved FRET assay can be used to determine IC50 values for inhibitors of the soluble human BACE1 catalytic domain. This assay monitors the increase of 620 nm fluorescence that resulted from BACE1 cleavage of an APPswedish APP^swe mutant peptide FRET substrate (QSY7-EISEVNLDAEFC-Europium-amide). This substrate contains an N-terminal QSY7 moiety that serves as a quencher of the C-terminal Europium fluorophore (620 nm Em). In the absence of enzyme activity, 620 nm fluorescence is low in the assay and increased linearly over 3 hours in the presence of uninhibited BACE1 enzyme. Inhibition of BACE1 cleavage of the QSY7-APP^swe-Eu substrate by inhibitors is manifested as a suppression of 620 nm fluorescence.
Varying concentrations of inhibitors at 3× the final desired concentration in a volume of 10 ul are preincubated with purified human BACE1 catalytic domain (3 nM in 10 μl) for 30 minutes at 30° C. in reaction buffer containing 20 mM Na-Acetate pH 5.0, 10% glycerol, 0.1% Brij-35 and 7.5% DSMO. Reactions are initiated by addition of 10 μl of 600 nM QSY7-APP^swe-Eu substrate (200 nM final) to give a final reaction volume of 30 μl in a 384 well Nunc HTRF plate. The reactions are incubated at 30° C. for 1.5 hours. The 620 nm fluorescence is then read on a Rubystar HTRF plate reader (BMG Labtechnologies) using a 50 millisecond delay followed by a 400 millisecond acquisition time window. Inhibitor IC50 values are derived from non-linear regression analysis of concentration response curves. Ki values are then calculated from IC50 values using the Cheng-Prusoff equation using a previously determined […] of 8 μM for the QSY7-APP^swe-Eu substrate at BACE1.

Experiment [2] concerns the target purified human autoBACE-2 (Homo sapiens (Human), UniProt Q9Y5Z0). The experiment can be described thus: BACE-2 Assay (BACE-HTRF assay). Type of experiment: biochemical. To be noted: Ki calculated from IC50 using the Cheng-Prusoff equation; QSY7-EISEVNLDAEFC-Eu-amide substrate, pH 5.0. On the procedure: Inhibitor IC50s at purified human autoBACE-2 are determined in a time-resolved endpoint proteolysis assay that measures hydrolysis of the QSY7-[…]-Eu-amide FRET peptide substrate (BACE-HTRF assay). […] DMSO is present at 5% final concentration in the assay. Following laser excitation of sample wells at 320 nm, the fluorescence signal at 620 nm is collected for 400 ms following a 50 μs delay on a RUBYstar HTRF plate reader (BMG Labtechnologies). Raw RFU data is normalized to maximum (1.0 nM BACE/DMSO) and minimum (no enzyme/DMSO) RFU values. […] The Ki values are calculated from the IC50 using the Cheng-Prusoff equation.

The structures appear in SMILES notation. pKi: −log10 of the molar value.

Sequence of soluble human BACE1 catalytic domain (P56817 75-416): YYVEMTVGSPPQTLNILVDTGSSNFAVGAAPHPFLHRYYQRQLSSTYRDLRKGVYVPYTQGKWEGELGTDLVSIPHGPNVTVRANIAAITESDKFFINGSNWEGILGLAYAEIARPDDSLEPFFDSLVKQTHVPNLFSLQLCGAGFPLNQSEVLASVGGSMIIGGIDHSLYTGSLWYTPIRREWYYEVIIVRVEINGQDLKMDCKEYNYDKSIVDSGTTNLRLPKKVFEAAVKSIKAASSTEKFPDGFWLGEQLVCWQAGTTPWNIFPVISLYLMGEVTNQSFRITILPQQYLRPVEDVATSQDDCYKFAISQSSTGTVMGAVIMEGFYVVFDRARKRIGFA
Sequence of purified human autoBACE-2 (Q9Y5Z0 63-473 limits assumed): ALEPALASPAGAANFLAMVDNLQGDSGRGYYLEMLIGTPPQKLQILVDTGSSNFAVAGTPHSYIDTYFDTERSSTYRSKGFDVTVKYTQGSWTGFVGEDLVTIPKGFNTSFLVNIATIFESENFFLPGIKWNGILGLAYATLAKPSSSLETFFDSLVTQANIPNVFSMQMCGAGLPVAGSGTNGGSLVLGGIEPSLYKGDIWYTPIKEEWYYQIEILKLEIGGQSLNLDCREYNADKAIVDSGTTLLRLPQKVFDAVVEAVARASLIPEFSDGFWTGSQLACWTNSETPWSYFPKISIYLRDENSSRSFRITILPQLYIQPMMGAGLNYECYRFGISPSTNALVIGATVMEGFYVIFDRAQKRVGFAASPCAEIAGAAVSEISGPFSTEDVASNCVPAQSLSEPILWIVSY

As for `CN1C(=N)N[C@]2(C)c3cc(NC(=O)c4ccc(Cl)cn4)ccc3OCC[C@H]2S1(=O)=O` [Example 1, 5-chloro-N-((4aR,11bR)-2-imino-3,11b-dimethyl-4,4-dioxido-2,3,4a,5,6,11b-hexahydro-1H-benzo[2,3]oxepino[4,5-e][1,2,4]thiadiazin-10-yl)picolinamide], the results for the pKi in experiment [1] and in experiment [2] were 7.14 and 7.19, respectively.

Take `CN1C(=N)N[C@]2(C)c3cc(NC(=O)c4ccccn4)ccc3OCC[C@H]2S1(=O)=O` [Example 2, N-((4aR,11bR)-2-imino-3,11b-dimethyl-4,4-dioxido-2,3,4a,5,6,11b-hexahydro-1H-benzo[2,3]oxepino[4,5-e][1,2,4]thiadiazin-10-yl)picolinamide]: the negative logarithm of the Ki (pKi) was 6.29 in experiment [1] and 6.55 in experiment [2].

Regarding `Cc1nc(C(=O)Nc2ccc3c(c2)[C@@]2(C)NC(=N)N(C)S(=O)(=O)[C@@H]2CCO3)c(C)o1` [Example 3, N-((4aR,11bR)-2-imino-3,11b-dimethyl-4,4-dioxido-2,3,4a,5,6,11b-hexahydro-1H-benzo[2,3]oxepino[4,5-e][1,2,4]thiadiazin-10-yl)-2,5-dimethyloxazole-4-carboxamide], the pKi in experiment [1] is 6.58; in experiment [2] it was 6.42.

Turning to `COCC(=O)Nc1ccc2c(c1)[C@@]1(C)NC(=N)N(C)S(=O)(=O)[C@@H]1CCO2` [Example 4, N-((4aR,11bR)-2-imino-3,11b-dimethyl-4,4-dioxido-2,3,4a,5,6,11b-hexahydro-1H-benzo[2,3]oxepino[4,5-e][1,2,4]thiadiazin-10-yl)-2-methoxyacetamide], the values for the pKi in experiment [1] and in experiment [2] were 5.87 and 6.05, respectively.

`CN1C(=N)N[C@]2(C)c3cc(NC(=O)c4ccc(C#N)cn4)ccc3OCC[C@H]2S1(=O)=O` [Example 5, 5-cyano-N-((4aR,11bR)-2-imino-3,11b-dimethyl-4,4-dioxido-2,3,4a,5,6,11b-hexahydro-1H-benzo[2,3]oxepino[4,5-e][1,2,4]thiadiazin-10-yl)picolinamide]: the pKi is 7.33 in experiment [1] and 6.52 in experiment [2].

Consider `C#CCOc1ccc(C(=O)Nc2ccc3c(c2)[C@@]2(C)NC(=N)N(C)S(=O)(=O)[C@@H]2CCO3)nc1` [Example 6, N-((4aR,11bR)-2-imino-3,11b-dimethyl-4,4-dioxido-2,3,4a,5,6,11b-hexahydro-1H-benzo[2,3]oxepino[4,5-e][1,2,4]thiadiazin-10-yl)-5-(prop-2-yn-1-yloxy)picolinamide], for which the pKi was 7.60 in experiment [1] and 6.00 in experiment [2].

`CN1C(=N)N[C@]2(C)c3cc(NC(=O)c4ccc(F)cn4)ccc3OCC[C@H]2S1(=O)=O` [Example 7, 5-fluoro-N-((4aR,11bR)-2-imino-3,11b-dimethyl-4,4-dioxido-2,3,4a,5,6,11b-hexahydro-1H-benzo[2,3]oxepino[4,5-e][1,2,4]thiadiazin-10-yl)picolinamide]: the negative-log Ki (pKi) in experiment [1] is 6.97; in experiment [2] it was 6.80.

With `Cc1cc(F)cnc1C(=O)Nc1ccc2c(c1)[C@@]1(C)NC(=N)N(C)S(=O)(=O)[C@@H]1CCO2` [Example 8, 5-fluoro-N-((4aR,11bR)-2-imino-3,11b-dimethyl-4,4-dioxido-2,3,4a,5,6,11b-hexahydro-1H-benzo[2,3]oxepino[4,5-e][1,2,4]thiadiazin-10-yl)-3-methylpicolinamide], the negative logarithm of the Ki (pKi) in experiment [1] was 6.88; in experiment [2], 7.07.

For `COc1cnc(C(=O)Nc2ccc3c(c2)[C@@]2(C)NC(=N)N(C)S(=O)(=O)[C@@H]2CCO3)cn1` [Example 9, N-((4aR,11bR)-2-imino-3,11b-dimethyl-4,4-dioxido-2,3,4a,5,6,11b-hexahydro-1H-benzo[2,3]oxepino[4,5-e][1,2,4]thiadiazin-10-yl)-5-methoxypyrazine-2-carboxamide], the negative-log Ki (pKi) in experiment [1] was 6.23; in experiment [2], 5.25.

On to `CN1C(=N)N[C@]2(C)c3cc(NC(=O)c4ccccn4)ccc3OCC[C@@H]2S1(=O)=O` [Example 10, N-((4aS,11bR)-2-imino-3,11b-dimethyl-4,4-dioxido-2,3,4a,5,6,11b-hexahydro-1H-benzo[2,3]oxepino[4,5-e][1,2,4]thiadiazin-10-yl)picolinamide], for which the negative-log Ki (pKi) in experiment [1] is 7.46; in experiment [2] it was 7.82.

Regarding `CN1C(=N)N[C@]2(C)c3cc(NC(=O)c4ncc(Cl)cc4Cl)ccc3OCC[C@@H]2S1(=O)=O` [Example 11], the pKi in experiment [1] and in experiment [2] was 8.70 in each case.

As to `CN1C(=N)N[C@]2(C)c3cc(NC(=O)c4ccc(OC(F)F)cn4)ccc3OCC[C@@H]2S1(=O)=O` [Example 12, 5-(difluoromethoxy)-N-((4aS,11bR)-2-imino-3,11b-dimethyl-4,4-dioxido-2,3,4a,5,6,11b-hexahydro-1H-benzo[2,3]oxepino[4,5-e][1,2,4]thiadiazin-10-yl)picolinamide], the negative-log Ki (pKi) was 8.30 in experiment [1] and 7.24 in experiment [2].

As to `CN1C(=N)N[C@]2(C)c3cc(NC(=O)c4ncc(Cl)cc4F)ccc3OCC[C@@H]2S1(=O)=O` [Example 13, 5-chloro-3-fluoro-N-((4aS,11bR)-2-imino-3,11b-dimethyl-4,4-dioxido-2,3,4a,5,6,11b-hexahydro-1H-benzo[2,3]oxepino[4,5-e][1,2,4]thiadiazin-10-yl)picolinamide], the negative logarithm of the Ki (pKi) in experiment [1] and in experiment [2] was 8.40 in each case.

Take `CN1C(=N)N[C@]2(C)c3cc(NC(=O)c4ccc(F)cn4)ccc3OCC[C@@H]2S1(=O)=O` [Example 14, 5-fluoro-N-((4aS,11bR)-2-imino-3,11b-dimethyl-4,4-dioxido-2,3,4a,5,6,11b-hexahydro-1H-benzo[2,3]oxepino[4,5-e][1,2,4]thiadiazin-10-yl)picolinamide]: the negative logarithm of the Ki (pKi) was 8.00 in experiment [1] and 8.22 in experiment [2].

For the compound `CN1C(=N)N[C@]2(C)c3cc(NC(=O)c4ncc(F)cc4F)ccc3OCC[C@@H]2S1(=O)=O` [Example 15], the pKi in experiment [1] was 8.00; in experiment [2] it was 8.22.

Consider `CN1C(=N)N[C@]2(C)c3cc(NC(=O)c4ccc(C#N)cn4)ccc3OCC[C@@H]2S1(=O)=O` [Example 16, 5-cyano-N-((4aS,11bR)-2-imino-3,11b-dimethyl-4,4-dioxido-2,3,4a,5,6,11b-hexahydro-1H-benzo[2,3]oxepino[4,5-e][1,2,4]thiadiazin-10-yl)picolinamide], for which the pKi in experiment [1] was 9.00; in experiment [2] it was 7.85.

As to `Cc1ccc(C(=O)Nc2ccc3c(c2)[C@@]2(C)NC(=N)N(C)S(=O)(=O)[C@H]2CCO3)nc1` [Example 17, N-((4aS,11bR)-2-imino-3,11b-dimethyl-4,4-dioxido-2,3,4a,5,6,11b-hexahydro-1H-benzo[2,3]oxepino[4,5-e][1,2,4]thiadiazin-10-yl)-5-methylpicolinamide], the negative-log Ki (pKi) was 7.74 in experiment [1] and 7.80 in experiment [2].

On to `CN1C(=N)N[C@]2(C)c3cc(NC(=O)c4ccc(C(F)(F)F)cn4)ccc3OCC[C@@H]2S1(=O)=O` [Example 18, N-((4aS,11bR)-2-imino-3,11b-dimethyl-4,4-thoxido-2,3,4a,5,6,11b-hexahydro-1H-benzo[2,3]oxepino[4,5-e][1,2,4]thiadiazin-10-yl)-5-(trifluoromethyl)picolinamide], for which the pKi in experiment [1] is 7.96; in experiment [2], 7.10.

With `CN1C(=N)N[C@]2(C)c3cc(NC(=O)c4ccc(OC(F)(F)F)cn4)ccc3OCC[C@@H]2S1(=O)=O` [Example 19, N-((4aS,11bR)-2-imino-3,11b-dimethyl-4,4-dioxido-2,3,4a,5,6,11b-hexahydro-1H-benzo[2,3]oxepino[4,5-e][1,2,4]thiadiazin-10-yl)-5-(trifluoromethoxy)picolinamide], the pKi in experiment [1] was 8.10; in experiment [2], 6.98.

For `CN1C(=N)N[C@]2(C)c3cc(NC(=O)c4ncc(C(F)(F)F)cc4Cl)ccc3OCC[C@@H]2S1(=O)=O` [Example 20, 3-chloro-N-((4aS,11bR)-2-imino-3,11b-dimethyl-4,4-dioxido-2,3,4a,5,6,11b-hexahydro-1H-benzo[2,3]oxepino[4,5-e][1,2,4]thiadiazin-10-yl)-5-(trifluoromethyl)picolinamide], the results for the pKi in experiment [1] and in experiment [2] were 8.30 and 7.44, respectively.

The values are drawn from patent publication US10238743B2 (Merck Sharp & Dohme Corp., priority 2014, dated 2019).
